Assay results reported in patent US8354436B2 (4SC Discovery GmbH, priority 2011, dated 2013).
pIC50: −log10 of the molar value. Read-outs that look alike come from different tables or passages of the source.

Legend:
[1] = tested on: PBMC from healthy human donors; test: T cell proliferation assay (PHA-stimulated human PBMC, BrdU ELISA); type: cell-based; settings: 48 hours
Procedure: Cell proliferation was analysed using the BrdU based cell proliferation ELISA from Roche (Mannheim, Germany) according to the manufacturer's instructions. T Cell Proliferation Assay Peripheral blood mononuclear cells (PBMC) from healthy human donors were isolated by centrifugation over Ficoll-Hypaque (Sigma-Aldrich, Germany) according to manufacturer's instructions. Purified PBMC were washed twice with PBS and resuspended in RPMI1640 culture medium supplemented with 10% dialyzed heat inactivated fetal calf serum, 1.5 mM L-glutamine, 100 U penicillin/ml, and […] (all from PAN Biotech, Aidenbach, Germany). For stimulation, PBMC were seeded at 1×10^5 cells/well, activated with 2 μg/ml phytohaemagglutinin (PHA, Sigma) and incubated with the test compound. After 48 hours proliferation was measured using the BrdU based cell proliferation ELISA from Roche (Mannheim, Germany) according to the manual.

IFN-γ = IFN-γ production by PHA-stimulated human PBMC (OptEIA human IFN-g ELISA); type: cell-based; settings: PHA-stimulated human PBMC, 48 hours; column C; read-out: IC50 (IFNγ)
Procedure: Analysis of Proliferation of and Cytokine Production by Human PBMC Stimulated with PHA
Peripheral blood mononuclear cells (PBMC) from healthy human donors were purified using Accuspin™ System-Histopaque-1077 (Sigma) according to the protocol recommended by the manufacturer. Purified PBMC were then washed twice with phosphate-buffered saline (PBS) and resuspended in RPMI1640 culture medium supplemented with 10% dialyzed heat inactivated fetal calf serum, 1.5 mM L-glutamine, 100 U penicillin/ml, and […] (all from PAN Biotech, Aidenbach, Germany). For stimulation, PBMC were seeded at 1×10^5 cells/well, activated with 2 μg/ml phytohaemagglutinin (PHA, Sigma) and incubated with the test compounds for 48 hours. IL-17A, IL-17F and INF-γ were then determined in the culture supernatant using a Luminex BioPlex system, following the manufacturer's instructions (BioRad, Munich, Germany). For screening, compounds were used at 10, 1, 0.1 and 0.01 μM. To determine the IC50, compounds were titrated semilogarithmically.
Cytokines were determined in the aforementioned culture supernatant using the following methods: IL-17AA/AF was measured using the Luminex BioPlex system (BioRad, Munich, Germany); IL-17AA using the human homodimer IL-17A ELISA Ready Set Go Kit from eBioscience (Frankfurt, Germany); IL-17FF using the human IL-17F ELI-Pair from Hölzel DiagnosticaGmBH (Köln, Germany); and IFN-γ using the OptEIA human IFN-g ELISA from BD Bioscience (Heidelberg, Germany), all following the manufacturer's instructions.

[2] = PHA-stimulated human PBMC, column D, read-out: IC50 (Tcell proliferation)

Row | Compound | pIC50 [1, 2] | pIC50 (IFN-γ) | pIC50 ([1]; human PBMC, 2 μg/ml PHA, read-out: D: IC50 (Tcell proliferation))
1 | NC(=O)c1c(-c2c(F)cccc2Cl)noc1-c1cnn(-c2cccc(F)c2)c1C(F)(F)F [Example I-124, 3-(2-chloro-6-fluorophenyl)-5-(1-(3-fluorophenyl)-5-(trifluoromethyl)-1H-pyrazol-4-yl)isoxazole-4-carboxamide] | 5.00 to 6.00 | 5.00 to 6.00 | –
2 | CC(=O)Nc1c(-c2c(F)cccc2Cl)noc1-c1cnn(-c2cccc(Cl)c2)c1C(F)(F)F [IB-39, N-(3-(2-chloro-6-fluorophenyl)-5-(1-(3-chlorophenyl)-5-(trifluoromethyl)-1H-pyrazol-4-yl)-isoxazol-4-yl)acetamide] | 5.00 to 6.00 | 5.00 to 6.00 | –
3 | COC(=O)c1c(-c2ccccc2)noc1-c1cnn(-c2cccc(F)c2)c1C(F)(F)F [Example I-51, methyl 5-(1-(3-fluorophenyl)-5-(trifluoromethyl)-1H-pyrazol-4-yl)-3-phenylisoxazole-4-carboxylate] | 5.00 to 6.00 | 5.00 to 6.00 | –
4 | CCOC(=O)c1c(-c2c(F)cccc2Cl)noc1-c1cnn(-c2ccc(C#N)cc2)c1C(F)(F)F [IB-40, ethyl 3-(2-chloro-6-fluorophenyl)-5-(1-(4-cyanophenyl)-5-(trifluoromethyl)-1H-pyrazol-4-yl)-isoxazole-4-carboxylate] | 5.00 to 6.00 | 5.00 to 6.00 | –
5 | O=C(c1c(-c2c(F)cccc2Cl)noc1-c1cnn(-c2ccccc2F)c1C(F)(F)F)N1CCCCC1 [Example I-21, (3-(2-chloro-6-fluorophenyl)-5-(1-(2-fluorophenyl)-5-(trifluoromethyl)-1H-pyrazol-4-yl)isoxazol-4-yl)(piperidin-1-yl)methanone] | 7.00 to 8.00 | 7.00 to 8.00 | –
6 | CC(C)=NNC(=O)c1c(-c2c(F)cccc2Cl)noc1-c1cnn(-c2cccc(F)c2)c1 [IB-29, 3-(2-chloro-6-fluorophenyl)-5-(1-(3-fluorophenyl)-1H-pyrazol-4-yl)-N′-(propan-2-ylidene)isoxazole-4-carbohydrazide] | 5.00 to 6.00 | 5.00 to 6.00 | –
7 | CC(C)OC(=O)c1c(-c2c(F)cccc2Cl)noc1-c1cnn(-c2cccc(S(N)(=O)=O)c2)c1C(F)(F)F [IB-73, isopropyl 3-(2-chloro-6-fluorophenyl)-5-(1-(3-sulfamoylphenyl)-5-(trifluoromethyl)-1H-pyrazol-4-yl)isoxazole-4-carboxylate] | 5.00 to 6.00 | 5.00 to 6.00 | –
8 | O=C(c1c(-c2c(F)cccc2Cl)noc1-c1cnn(-c2ccccc2F)c1C(F)(F)F)N1CCN(Cc2cccc(Cl)c2)CC1 [Example I-24, (3-(2-chloro-6-fluorophenyl)-5-(1-(2-fluorophenyl)-5-(trifluoromethyl)-1H-pyrazol-4-yl)isoxazol-4-yl)(4-(3-chlorobenzyl)piperazin-1-yl)methanone] | 6.00 to 7.00 | 5.00 to 6.00 | –
9 | CN1CCN(C(=O)c2c(-c3c(F)cccc3Cl)noc2-c2cnn(-c3cccc(Cl)c3)c2C(F)(F)F)CC1 [IB-34, (3-(2-chloro-6-fluorophenyl)-5-(1-(3-chlorophenyl)-5-(trifluoromethyl)-1H-pyrazol-4-yl)-isoxazol-4-yl)(4-methylpiperazin-1-yl)methanone] | 6.00 to 7.00 | 6.00 to 7.00 | –
10 | COC(=O)c1c(-c2ccccc2)noc1-c1cnn(-c2ccc(OC(F)(F)F)cc2)c1C(F)(F)F [Example I-74, methyl 3-phenyl-5-(1-(4-(trifluoromethoxy)phenyl)-5-(trifluoromethyl)-1H-pyrazol-4-yl)isoxazole-4-carboxylate] | 5.00 to 6.00 | – | –
11 | COc1ccc(-c2noc(-c3cnn(-c4cccc(F)c4)c3C(F)(F)F)c2C(=O)O)cc1 [Example I-108, 5-(1-(3-fluorophenyl)-5-(trifluoromethyl)-1H-pyrazol-4-yl)-3-(4-methoxyphenyl)isoxazole-4-carboxylic acid] | 5.00 to 6.00 | – | –
12 | COC(=O)c1c(-c2c(F)cccc2Cl)noc1-c1cnn(-c2ccc(Cl)cc2Cl)c1C(F)(F)F [Example I-7, methyl 3-(2-chloro-6-fluorophenyl)-5-(1-(2,4-dichlorophenyl)-5-(trifluoromethyl)-1H-pyrazol-4-yl)isoxazole-4-carboxylate] | 5.00 to 6.00 | – | –
13 | CC(C)Cn1ncc(-c2onc(-c3c(F)cccc3Cl)c2-c2nnn[nH]2)c1C(F)(F)F [Example 1, 3-(2-chloro-6-fluorophenyl)-5-(1-isobutyl-5-(trifluoromethyl)-1H-pyrazol-4-yl)-4-(1H-tetrazol-5-yl)isoxazole] | – | – | 5.00 to 6.00
14 | COC(=O)c1c(-c2c(F)cccc2Cl)noc1-c1cnn(-c2ccccc2I)c1C(F)(F)F [Example I-88, methyl 3-(2-chloro-6-fluorophenyl)-5-(1-(2-iodophenyl)-5-(trifluoromethyl)-1H-pyrazol-4-yl)isoxazole-4-carboxylate] | 5.00 to 6.00 | – | –
15 | COC(=O)c1c(-c2c(F)cccc2Cl)noc1-c1cnn(-c2cccc(F)c2)c1C(F)(F)C(F)F [Example I-64, methyl 3-(2-chloro-6-fluorophenyl)-5-(1-(3-fluorophenyl)-5-(1,1,2,2-tetrafluoroethyl)-1H-pyrazol-4-yl)isoxazole-4-carboxylate] | 5.00 to 6.00 | – | –
16 | CCOc1cc(-n2ncc(-c3onc(-c4c(F)cccc4Cl)c3C(=O)OC)c2C(F)(F)F)ncn1 [Example I-116, methyl 3-(2-chloro-6-fluorophenyl)-5-(1-(6-ethoxypyrimidin-4-yl)-5-(trifluoromethyl)-1H-pyrazol-4-yl)isoxazole-4-carboxylate] | 5.00 to 6.00 | – | –
17 | CON(C)C(=O)c1c(-c2c(F)cccc2Cl)noc1-c1cnn(-c2ccccc2Br)c1C(F)(F)F [IB-74, 5-(1-(-2-bromophenyl)-5-(trifluoromethyl)-1H-pyrazol-4-yl)-3-(2-chloro-6-fluorophenyl)-N-methoxy-N-methylisoxazole-4-carboxamide] | 5.00 to 6.00 | 5.00 to 6.00 | –
18 | COC(=O)c1c(-c2ccc(Cl)cc2)noc1-c1cnn(-c2cccc(F)c2)c1C(F)(F)F [Example I-73, methyl 3-(4-chlorophenyl)-5-(1-(3-fluorophenyl)-5-(trifluoromethyl)-1H-pyrazol-4-yl)isoxazole-4-carboxylate] | 5.00 to 6.00 | – | –
19 | CCOC(=O)c1c(-c2onc(-c3c(F)cccc3Cl)c2C(=O)OC)cnn1-c1cc(F)cc(F)c1 [Example I-39, methyl 3-(2-chloro-6-fluorophenyl)-5-(1-(3,5-difluorophenyl)-5-(ethoxycarbonyl)-1-H-pyrazol-4-yl)isoxazole-4-carboxylate] | 5.00 to 6.00 | – | –
20 | COC(=O)c1c(-c2ccc(Cl)c(Cl)c2)noc1-c1cnn(-c2cccc(F)c2)c1C(F)(F)F [Example I-97, methyl 3-(3,4-dichlorophenyl)-5-(1-(3-fluorophenyl)-5-(trifluoromethyl)-1H-pyrazol-4-yl)isoxazole-4-carboxylate] | 5.00 to 6.00 | – | –
21 | COC(=O)c1c(-c2ccc(OC)cc2)noc1-c1cnn(-c2cccc(F)c2)c1C(F)(F)F [Example I-107, methyl 5-(1-(3-fluorophenyl)-5-(trifluoromethyl)-1H-pyrazol-4-yl)-3-(4-methoxyphenyl)isoxazole-4-carboxylate] | 5.00 to 6.00 | – | –
22 | COC(=O)c1c(-c2c(F)cccc2Cl)noc1-c1cnn(-c2nc(-c3ccc(F)cc3)cs2)c1C(F)(F)F [Example I-54, methyl 3-(2-chloro-6-fluorophenyl)-5-(1-(4-(4-fluorophenyl)thiazol-2-yl)-5-(trifluoromethyl)-1H-pyrazol-4-yl)isoxazole-4-carboxylate] | 5.00 to 6.00 | – | –
23 | CCOC(=O)c1c(-c2onc(-c3c(F)cccc3Cl)c2C(=O)OC)cnn1CC(C)C [Example I-29] | 5.00 to 6.00 | – | –
